This assay has as its target protein disulfide isomerase (PDI) (Homo sapiens, UniProt P07237). Put plainly: 1H-15N HSQC NMR chemical shift perturbation. Format: binding.

protein disulfide isomerase (PDI), sequence (P07237 18-137): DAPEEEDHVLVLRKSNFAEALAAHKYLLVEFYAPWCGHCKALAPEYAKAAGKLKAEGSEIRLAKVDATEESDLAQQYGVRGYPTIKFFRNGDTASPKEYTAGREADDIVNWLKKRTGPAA

Turning to `O=C1C=C2C=C[C@@H]3C[C@@]2(O1)[C@H]1CCCCN31` [IBS141, securinine], the Kd amounted to 758 ± 129 µM.

(Values after PMC4603724 (ACS Medicinal Chemistry Letters, 2015).)
